This passage reports % of control and % of inhibition results from ChEMBL document CHEMBL5465560, “Selectivity Literature for EUbOPEN Chemogenomic Library” (2024).

Experiment [1] deals with T1, Mitogen-activated protein kinase kinase kinase kinase 3 (Homo sapiens) (UniProt Q8IVH8).
T1 sequence (whole entry): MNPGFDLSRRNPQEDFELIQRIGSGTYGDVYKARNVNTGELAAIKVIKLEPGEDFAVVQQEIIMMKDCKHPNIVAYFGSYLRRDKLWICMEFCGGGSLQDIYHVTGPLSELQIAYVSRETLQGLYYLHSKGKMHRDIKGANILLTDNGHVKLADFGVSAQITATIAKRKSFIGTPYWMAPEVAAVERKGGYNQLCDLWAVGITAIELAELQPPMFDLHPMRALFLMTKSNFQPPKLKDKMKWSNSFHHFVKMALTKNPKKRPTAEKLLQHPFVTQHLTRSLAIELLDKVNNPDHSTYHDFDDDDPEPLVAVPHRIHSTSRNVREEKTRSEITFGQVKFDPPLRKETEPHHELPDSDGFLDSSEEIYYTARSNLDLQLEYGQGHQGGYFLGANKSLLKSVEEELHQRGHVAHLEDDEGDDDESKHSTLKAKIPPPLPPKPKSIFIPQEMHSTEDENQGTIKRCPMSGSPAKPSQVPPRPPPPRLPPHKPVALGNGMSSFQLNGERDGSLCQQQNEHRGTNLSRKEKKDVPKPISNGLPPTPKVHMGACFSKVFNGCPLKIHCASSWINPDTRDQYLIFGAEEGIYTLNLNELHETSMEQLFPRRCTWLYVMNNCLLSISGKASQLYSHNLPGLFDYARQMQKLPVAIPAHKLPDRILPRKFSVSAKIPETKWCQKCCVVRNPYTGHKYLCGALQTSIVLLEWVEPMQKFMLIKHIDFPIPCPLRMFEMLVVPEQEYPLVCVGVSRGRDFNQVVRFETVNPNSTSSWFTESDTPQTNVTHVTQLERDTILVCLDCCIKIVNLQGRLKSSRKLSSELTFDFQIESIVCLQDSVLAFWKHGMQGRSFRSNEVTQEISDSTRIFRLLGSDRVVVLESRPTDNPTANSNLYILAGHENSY
As to the kind of experiment: Selectivity interaction (KinomeScan (DiscoverX)) EUB0000666a MAP4K3. Conditions: at 10 µM.

Experiment [2] has as its target Tyrosine-protein kinase Yes (Homo sapiens) (UniProt P07947). As to the kind of experiment: Selectivity interaction (KinomeScan (DiscoverX)) EUB0000666a YES1. Conditions: at 10 µM.
Experiment [3] addresses T2, Peripheral plasma membrane protein CASK (Homo sapiens) (UniProt O14936).
T2 sequence (whole entry): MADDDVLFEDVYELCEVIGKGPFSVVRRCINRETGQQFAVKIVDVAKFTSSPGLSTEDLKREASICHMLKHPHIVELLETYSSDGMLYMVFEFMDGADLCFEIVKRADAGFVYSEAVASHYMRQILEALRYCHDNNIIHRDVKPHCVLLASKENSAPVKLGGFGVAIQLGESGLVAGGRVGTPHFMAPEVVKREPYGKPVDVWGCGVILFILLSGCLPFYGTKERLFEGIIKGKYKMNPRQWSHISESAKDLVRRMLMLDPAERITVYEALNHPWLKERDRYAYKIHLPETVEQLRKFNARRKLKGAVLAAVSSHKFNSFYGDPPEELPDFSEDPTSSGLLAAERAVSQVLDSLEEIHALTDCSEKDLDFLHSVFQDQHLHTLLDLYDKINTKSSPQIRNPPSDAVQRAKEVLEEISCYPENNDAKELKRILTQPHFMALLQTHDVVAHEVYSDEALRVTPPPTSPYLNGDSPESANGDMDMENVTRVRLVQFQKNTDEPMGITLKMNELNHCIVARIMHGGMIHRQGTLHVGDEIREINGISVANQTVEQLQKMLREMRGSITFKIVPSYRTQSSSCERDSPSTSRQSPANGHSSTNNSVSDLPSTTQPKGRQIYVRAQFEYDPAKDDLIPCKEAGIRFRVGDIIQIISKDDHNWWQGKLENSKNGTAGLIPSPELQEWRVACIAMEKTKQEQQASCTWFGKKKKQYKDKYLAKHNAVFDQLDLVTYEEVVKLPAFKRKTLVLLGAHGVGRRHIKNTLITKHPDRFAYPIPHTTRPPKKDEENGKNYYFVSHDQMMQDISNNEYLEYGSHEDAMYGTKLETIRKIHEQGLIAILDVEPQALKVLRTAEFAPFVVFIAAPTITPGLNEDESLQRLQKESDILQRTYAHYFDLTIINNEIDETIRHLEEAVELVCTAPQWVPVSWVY
As to the kind of experiment: Selectivity interaction (KinomeScan (DiscoverX)) EUB0000607a CASK. Conditions: at 10 µM.

For experiment [4], the target named is Fibroblast growth factor receptor 2 (Homo sapiens) (UniProt P21802). The experiment is described as follows: Selectivity interaction (Kinase screening (Nanosyn)) EUB0000604a FGFR2.
Experiment [5] has as its target Cyclin-dependent kinase 18 (Homo sapiens) (UniProt Q07002). As to the kind of experiment: Selectivity interaction (Ambit KINOMEscan and KiNATiv profiling in Jurkat cells) EUB0000090b CDK18. Format: cell-based. The conditions noted are these: at 1 µM.
Experiment [6] deals with T3, Myosin light chain kinase (Homo sapiens) (UniProt Q32MK0).
T3 sequence (whole entry): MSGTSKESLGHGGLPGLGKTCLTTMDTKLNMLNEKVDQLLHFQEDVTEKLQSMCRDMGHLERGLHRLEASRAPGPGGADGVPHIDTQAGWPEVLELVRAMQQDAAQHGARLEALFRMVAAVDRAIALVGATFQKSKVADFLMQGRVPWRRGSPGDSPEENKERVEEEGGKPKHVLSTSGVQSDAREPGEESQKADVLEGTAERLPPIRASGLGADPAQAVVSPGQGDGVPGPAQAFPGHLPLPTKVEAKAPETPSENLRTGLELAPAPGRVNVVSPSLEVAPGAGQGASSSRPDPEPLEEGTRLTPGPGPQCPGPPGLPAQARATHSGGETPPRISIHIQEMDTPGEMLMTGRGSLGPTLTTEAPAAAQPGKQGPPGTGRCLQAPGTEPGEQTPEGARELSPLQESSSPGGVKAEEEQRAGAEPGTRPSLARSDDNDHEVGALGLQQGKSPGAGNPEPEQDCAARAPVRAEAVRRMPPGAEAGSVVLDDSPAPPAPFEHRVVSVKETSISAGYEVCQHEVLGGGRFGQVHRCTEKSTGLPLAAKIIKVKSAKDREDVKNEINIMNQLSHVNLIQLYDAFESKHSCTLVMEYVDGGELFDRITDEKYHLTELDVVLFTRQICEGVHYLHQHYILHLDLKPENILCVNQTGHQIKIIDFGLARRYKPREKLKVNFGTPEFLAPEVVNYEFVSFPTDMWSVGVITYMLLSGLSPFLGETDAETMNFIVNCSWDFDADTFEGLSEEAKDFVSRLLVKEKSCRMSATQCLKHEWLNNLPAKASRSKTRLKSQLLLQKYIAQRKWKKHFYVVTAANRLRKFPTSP
As to the kind of experiment: Selectivity interaction (KinomeScan (DiscoverX)) EUB0001049a MYLK3. The conditions noted are these: at 1 µM.

For experiment [7], the system named is Hepatocyte growth factor receptor (Homo sapiens), P08581 [M1250T]. The experiment is described as follows: (§1) Selectivity interaction (KinomeScan (DiscoverX)) EUB0000618a MET. Conditions: at 10 µM.
Experiment [8] deals with Hepatocyte growth factor receptor (Homo sapiens), P08581 [Y1235D]. Described as §1. Conditions: at 10 µM.
For experiment [9], the target named is Hepatocyte growth factor receptor (Homo sapiens, UniProt P08581). The description is as §1. The conditions noted are these: at 10 µM.

Fibroblast growth factor receptor 2 (Homo sapiens), sequence (P21802 22-821 limits assumed): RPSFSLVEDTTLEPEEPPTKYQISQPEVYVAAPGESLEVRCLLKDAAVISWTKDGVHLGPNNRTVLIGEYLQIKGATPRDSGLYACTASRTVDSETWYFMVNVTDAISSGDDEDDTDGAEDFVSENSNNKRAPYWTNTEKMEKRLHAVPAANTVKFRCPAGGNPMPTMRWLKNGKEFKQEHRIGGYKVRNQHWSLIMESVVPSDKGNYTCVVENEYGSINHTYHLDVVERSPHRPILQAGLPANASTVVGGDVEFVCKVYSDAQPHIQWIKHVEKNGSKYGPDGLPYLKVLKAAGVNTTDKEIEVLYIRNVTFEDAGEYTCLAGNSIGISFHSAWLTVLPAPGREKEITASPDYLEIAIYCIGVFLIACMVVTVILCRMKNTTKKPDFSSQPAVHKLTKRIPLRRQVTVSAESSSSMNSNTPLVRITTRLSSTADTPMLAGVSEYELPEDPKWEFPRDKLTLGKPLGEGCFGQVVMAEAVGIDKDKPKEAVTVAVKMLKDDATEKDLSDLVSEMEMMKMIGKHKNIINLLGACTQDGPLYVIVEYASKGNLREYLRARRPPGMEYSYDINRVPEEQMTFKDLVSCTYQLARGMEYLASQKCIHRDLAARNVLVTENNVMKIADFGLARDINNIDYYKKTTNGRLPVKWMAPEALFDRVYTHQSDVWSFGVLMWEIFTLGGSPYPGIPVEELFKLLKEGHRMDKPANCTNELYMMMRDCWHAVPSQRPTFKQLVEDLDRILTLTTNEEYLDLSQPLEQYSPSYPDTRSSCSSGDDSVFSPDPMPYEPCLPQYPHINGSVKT
Hepatocyte growth factor receptor (Homo sapiens), P08581 [Y1235D], sequence (P08581 whole entry Y1235D): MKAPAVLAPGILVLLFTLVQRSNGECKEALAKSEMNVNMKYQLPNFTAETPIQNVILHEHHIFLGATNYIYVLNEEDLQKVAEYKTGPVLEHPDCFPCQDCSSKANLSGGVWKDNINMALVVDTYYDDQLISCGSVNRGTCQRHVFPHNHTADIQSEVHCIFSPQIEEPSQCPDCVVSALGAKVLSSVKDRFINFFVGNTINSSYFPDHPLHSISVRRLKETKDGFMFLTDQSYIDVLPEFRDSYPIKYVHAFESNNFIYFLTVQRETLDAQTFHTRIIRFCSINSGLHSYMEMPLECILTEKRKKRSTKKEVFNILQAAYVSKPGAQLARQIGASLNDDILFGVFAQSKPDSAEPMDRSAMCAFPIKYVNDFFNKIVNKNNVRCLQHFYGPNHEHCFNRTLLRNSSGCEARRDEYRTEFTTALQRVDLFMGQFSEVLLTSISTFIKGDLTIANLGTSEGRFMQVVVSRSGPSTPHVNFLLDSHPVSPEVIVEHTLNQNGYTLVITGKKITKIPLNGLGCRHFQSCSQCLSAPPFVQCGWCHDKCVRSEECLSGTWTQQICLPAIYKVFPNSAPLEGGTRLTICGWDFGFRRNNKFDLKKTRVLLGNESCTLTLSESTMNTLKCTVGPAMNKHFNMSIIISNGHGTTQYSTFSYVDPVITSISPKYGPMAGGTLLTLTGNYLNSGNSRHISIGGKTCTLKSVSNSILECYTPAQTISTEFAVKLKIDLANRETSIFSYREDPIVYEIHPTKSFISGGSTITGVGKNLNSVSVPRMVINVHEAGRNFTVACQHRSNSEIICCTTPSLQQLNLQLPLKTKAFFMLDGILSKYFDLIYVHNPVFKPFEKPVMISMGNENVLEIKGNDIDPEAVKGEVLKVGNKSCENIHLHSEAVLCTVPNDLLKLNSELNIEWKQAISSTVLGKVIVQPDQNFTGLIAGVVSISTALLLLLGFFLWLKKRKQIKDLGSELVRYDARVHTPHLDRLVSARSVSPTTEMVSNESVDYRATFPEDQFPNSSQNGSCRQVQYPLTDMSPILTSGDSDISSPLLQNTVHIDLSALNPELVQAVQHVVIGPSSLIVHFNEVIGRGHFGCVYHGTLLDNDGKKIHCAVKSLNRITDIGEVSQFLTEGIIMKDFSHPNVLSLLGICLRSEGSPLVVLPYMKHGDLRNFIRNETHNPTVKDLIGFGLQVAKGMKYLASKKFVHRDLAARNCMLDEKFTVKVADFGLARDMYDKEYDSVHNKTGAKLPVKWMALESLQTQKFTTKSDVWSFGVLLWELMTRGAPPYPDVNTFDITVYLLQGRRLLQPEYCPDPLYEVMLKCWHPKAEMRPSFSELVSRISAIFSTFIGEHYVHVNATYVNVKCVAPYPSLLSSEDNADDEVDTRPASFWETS
Cyclin-dependent kinase 18 (Homo sapiens), sequence (Q07002 whole entry): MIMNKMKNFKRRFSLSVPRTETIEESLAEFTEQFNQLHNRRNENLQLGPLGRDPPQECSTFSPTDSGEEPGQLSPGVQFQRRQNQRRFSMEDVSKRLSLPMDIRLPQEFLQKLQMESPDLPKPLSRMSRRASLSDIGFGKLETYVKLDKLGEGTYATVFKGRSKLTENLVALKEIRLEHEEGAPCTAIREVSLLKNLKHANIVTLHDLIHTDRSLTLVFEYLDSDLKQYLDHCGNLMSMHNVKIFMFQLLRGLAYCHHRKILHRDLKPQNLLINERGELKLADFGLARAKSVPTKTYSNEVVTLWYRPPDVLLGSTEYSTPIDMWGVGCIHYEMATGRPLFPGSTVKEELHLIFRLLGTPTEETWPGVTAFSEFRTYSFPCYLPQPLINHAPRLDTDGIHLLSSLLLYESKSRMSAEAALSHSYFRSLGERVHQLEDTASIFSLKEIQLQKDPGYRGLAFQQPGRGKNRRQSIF
Tyrosine-protein kinase Yes (Homo sapiens), sequence (P07947 2-543 limits assumed): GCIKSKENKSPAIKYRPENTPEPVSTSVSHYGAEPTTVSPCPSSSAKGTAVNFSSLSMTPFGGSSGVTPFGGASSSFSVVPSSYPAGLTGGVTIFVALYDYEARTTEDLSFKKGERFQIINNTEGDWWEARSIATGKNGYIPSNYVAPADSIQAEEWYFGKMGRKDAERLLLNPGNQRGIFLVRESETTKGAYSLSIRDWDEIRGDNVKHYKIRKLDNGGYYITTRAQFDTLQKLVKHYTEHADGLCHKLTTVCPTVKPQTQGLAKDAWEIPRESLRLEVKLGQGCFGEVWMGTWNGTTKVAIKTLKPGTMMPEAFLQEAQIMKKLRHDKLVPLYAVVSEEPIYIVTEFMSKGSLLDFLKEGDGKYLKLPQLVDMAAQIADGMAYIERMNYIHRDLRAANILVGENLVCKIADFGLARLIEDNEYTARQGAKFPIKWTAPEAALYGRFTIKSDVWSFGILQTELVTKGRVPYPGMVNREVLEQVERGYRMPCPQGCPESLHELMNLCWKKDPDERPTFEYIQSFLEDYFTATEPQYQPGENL
Hepatocyte growth factor receptor (Homo sapiens), P08581 [M1250T], sequence (P08581 whole entry M1250T): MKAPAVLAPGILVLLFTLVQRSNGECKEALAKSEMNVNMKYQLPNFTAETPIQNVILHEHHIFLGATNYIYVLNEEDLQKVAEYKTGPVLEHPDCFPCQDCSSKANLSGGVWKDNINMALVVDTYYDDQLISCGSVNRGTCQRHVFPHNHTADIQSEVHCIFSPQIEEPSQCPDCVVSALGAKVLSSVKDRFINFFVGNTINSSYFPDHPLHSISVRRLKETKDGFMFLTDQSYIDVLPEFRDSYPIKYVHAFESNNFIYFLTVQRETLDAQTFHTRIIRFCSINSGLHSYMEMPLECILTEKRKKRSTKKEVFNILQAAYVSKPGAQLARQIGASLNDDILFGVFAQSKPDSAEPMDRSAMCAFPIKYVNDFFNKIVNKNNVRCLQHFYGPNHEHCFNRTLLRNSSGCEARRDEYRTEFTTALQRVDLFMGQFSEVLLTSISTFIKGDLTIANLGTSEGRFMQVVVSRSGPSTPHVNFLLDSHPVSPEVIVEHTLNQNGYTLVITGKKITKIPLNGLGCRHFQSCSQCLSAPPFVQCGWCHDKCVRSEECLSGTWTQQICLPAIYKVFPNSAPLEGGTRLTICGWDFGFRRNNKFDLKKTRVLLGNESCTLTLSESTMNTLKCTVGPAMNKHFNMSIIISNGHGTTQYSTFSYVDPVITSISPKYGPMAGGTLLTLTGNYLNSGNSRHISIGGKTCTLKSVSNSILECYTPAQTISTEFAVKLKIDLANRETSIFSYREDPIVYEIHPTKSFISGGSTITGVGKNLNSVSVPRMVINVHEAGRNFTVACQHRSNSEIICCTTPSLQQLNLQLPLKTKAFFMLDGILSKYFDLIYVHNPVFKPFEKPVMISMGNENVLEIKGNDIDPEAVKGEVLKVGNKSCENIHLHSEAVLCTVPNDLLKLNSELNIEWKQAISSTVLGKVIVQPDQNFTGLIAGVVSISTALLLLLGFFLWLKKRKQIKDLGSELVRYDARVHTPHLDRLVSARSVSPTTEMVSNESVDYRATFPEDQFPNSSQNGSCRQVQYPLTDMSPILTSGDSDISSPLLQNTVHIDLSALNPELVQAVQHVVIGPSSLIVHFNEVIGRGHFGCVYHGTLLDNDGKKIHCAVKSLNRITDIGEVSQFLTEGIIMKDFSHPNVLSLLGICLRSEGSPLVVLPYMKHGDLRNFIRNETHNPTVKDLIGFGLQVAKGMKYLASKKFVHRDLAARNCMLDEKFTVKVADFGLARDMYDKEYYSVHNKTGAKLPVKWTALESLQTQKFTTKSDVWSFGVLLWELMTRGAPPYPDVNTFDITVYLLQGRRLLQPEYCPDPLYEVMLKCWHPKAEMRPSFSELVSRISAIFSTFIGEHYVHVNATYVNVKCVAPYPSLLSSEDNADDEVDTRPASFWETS

As to `O=C(NOC[C@H](O)CO)c1ccc(F)c(F)c1Nc1ccc(I)cc1F`, the % of control amounted to 87% in [1] and 73% in experiment [2].

As to `CNC(=O)Nc1ccc(-c2nc(N3CC4CCC(C3)O4)c3cnn(C4CCC5(CC4)OCCO5)c3n2)cc1`, the % of control in experiment [3] is 64%.

In experiment [4], `Cc1cnc(Nc2ccc(F)cc2Cl)nc1-c1c[nH]c(C(=O)N[C@H](CO)c2cccc(Cl)c2)c1` displayed a % of inhibition of 12%.

For the compound `CN(C)C/C=C/C(=O)Nc1ccc(C(=O)N2CCCC(Nc3ncc(Cl)c(-c4c[nH]c5ccccc45)n3)C2)cc1` (centres undefined), in experiment [5], the % of control was found to be 59%.

`COc1cc(Nc2nc(C)cc(-c3cnn4nc(OC)ccc34)n2)cc(C(F)(F)F)c1`: in experiment [6], the % of control worked out at 82%.

`O[C@H]1CC[C@H](Nc2ncc3nc(Nc4c(F)cc(F)cc4F)n([C@H]4CCOC4)c3n2)CC1`: the % of control in experiment [7], in [8] and in experiment [9] was 100% each time.
